≈ marks a conversion by molar mass, not a printed value.
How the values were obtained:
Test in all cases: Antibacterial activity in vitro, MIC by broth microdilution
E. faecalis Enfa_29212 = format: cell-based; details: Table 5, Strain ID D: E. faecalis Enfa_29212; unit assumed
Method: (§1) Representative compounds of the present invention were assayed in vitro for antibacterial activity against the bacterial isolates listed in Table 1 as follows:
(§2) The bacterial isolates listed in Table 1 were cultivated from −70° C. frozen stocks by two consecutive overnight passages (P1, P2) at 35° C. on 5% blood agar (Remel, Lenexa, Kans.). Chocolate agar (Remel) is used for Haemophilus influenzae. H. influenzae and Streptococcus pneumoniae are incubated in 5-10% CO2.
(§3) To determine the amount of solvent to be used to give the desired final concentration, the formula “weight obtained in mg/final concentration in mg/mL” will be used. It will give the amount of solvent in mL needed to be added to give the desired concentration. For example, if 2.5 mg/mL is the desired concentration and the weight of compound is 13.7 mg, then the amount of solvent to be added is 3.94 mL (13.7 mg/2.5 mg/mL=3.94 mLs). Methanol is used as the solvent to dissolve the test compounds. Further dilution of stock is done in sterile, deioinzed water. Drug stocks are kept frozen at −70° C., protected from light.
(§4) MICs are determined by the broth microdilution method in accordance with the NCCLS guidelines. In brief, organism suspensions are adjusted to a 0.5 McFarland standard to yield a final inoculum between 3×10^5 and 7×10^5 CFU/mL. Drug dilutions and inocula are made in sterile, cation adjusted Mueller-Hinton Broth (CAMHB) (Remel) for all but S. pneumoniae [CAMHB with 2-5% lysed horse blood (Remel)] and H. influenzae [Haemophilus Test Medium (Remel)]. An inoculum volume of 100 μl is added to wells containing 100 μl of broth with 2-fold serial dilutions of drug. All inoculated microdilution trays are incubated in ambient air at 35° C. for 18-24 hours, except for S. pneumoniae, and H. influenzae (both at 5-10% CO2).
(§5) Following appropriate incubation, the MIC is determined and the MIC is defined as the lowest concentration of the drug that prevented visible growth.

S. aureus Stau_29213 = format: cell-based; details: Table 5, Strain ID A: S. aureus Stau_29213; unit assumed
Method: as §1, §2, §3, §4, §5

[1] = system: S. epidermidis Step_14990; format: cell-based; details: Table 5, Strain ID B: S. epidermidis Step_14990; unit assumed
Method: as §1, §2, §3, §4, §5

[2] = system: S. epidermidis Step_f50654 Pen S; format: cell-based; details: Table 5, Strain ID C: S. epidermidis Step_f50654; unit assumed
Method: as §1, §2, §3, §4, §5

S. pyogenes Stpy_8668 = format: cell-based; details: Table 5, Strain ID E: S. pyogenes Stpy_8668
Method: as §1, §2, §3, §4, §5

[3] = system: S. pneumoniae Stpn_280-962 Pen S; format: cell-based, Streptococcus pneumoniae; details: Table 5, Strain ID H: S. pneumoniae Stpn_280-962
Method: as §1, §2, §3, §4, §5

[4] = system: S. pneumoniae Stpn_297-749 Pen R; format: cell-based, Streptococcus pneumoniae; details: Table 5, Strain ID G: S. pneumoniae Stpn_297-749
Method: as §1, §2, §3, §4, §5

S. pneumoniae Stpn_49619 = format: cell-based, Streptococcus pneumoniae; details: Table 5, Strain ID F: S. pneumoniae Stpn_49619
Method: as §1, §2, §3, §4, §5

[5] = system: S. pneumoniae Stpn_Erm 6849; format: cell-based, Streptococcus pneumoniae; details: Table 5, Strain ID I: S. pneumoniae Stpn_Erm 6849
Method: as §1, §2, §3, §4, §5

[6] = system: S. pneumoniae Stpn_Erm S 4297; format: cell-based, Streptococcus pneumoniae; details: Table 5, Strain ID J: S. pneumoniae Stpn_Erm S 4297
Method: as §1, §2, §3, §4, §5

[7] = system: S. pneumoniae Stpn_Mef 5654; format: cell-based, Streptococcus pneumoniae; details: Table 5, Strain ID K: S. pneumoniae Stpn_Mef 5654; unit assumed
Method: as §1, §2, §3, §4, §5

[8] = system: S. pneumoniae Stpn_Mef S 3427; format: cell-based, Streptococcus pneumoniae; details: Table 5, Strain ID L: S. pneumoniae Stpn_Mef S 3427
Method: as §1, §2, §3, §4, §5

H. influenzae Hain_49247 = format: cell-based, Haemophilus influenzae; details: Table 5, Strain ID M: H. influenzae Hain_49247; unit assumed
Method: as §1, §2, §3, §4, §5

Compound | MIC (E. faecalis Enfa_29212) | MIC (S. aureus Stau_29213) | MIC [1] | MIC [2] | MIC (S. pyogenes Stpy_8668) | MIC [3] | MIC [4] | MIC (S. pneumoniae Stpn_49619) | MIC ([5]; unit assumed) | MIC ([6]; unit assumed) | MIC [7] | MIC ([8]; unit assumed) | MIC (H. influenzae Hain_49247) | MIC ([4]; unit assumed) | MIC [6] | MIC [8] | MIC (S. pyogenes Stpy_8668; unit assumed) | MIC (S. pneumoniae Stpn_49619; unit assumed) | MIC [5]
CC[C@H]1OC(=O)[C@H](C)C(=O)[C@H](C)[C@@H](OC2O[C@H](C)C[C@H](N(C)C)[C@H]2O)[C@@](C)(OC)C[C@@H](C)C(=O)[C@H](C)[C@H]2N(CCCC(C)(C)n3cnc(-c4cccnc4)c3)C(=O)O[C@]12CC (stereo partly drawn) [Example 31, (3aS,4R,7R,9R,10R,11S,13R,15R,15aR)-3a,4-diethyl-11-methoxy-7,9,11,13,15-pentamethyl-1-[4-methyl-4-(4-pyridin-3-yl-1H-imidazol-1-yl)pentyl]-2,6,8,14-tetraoxotetradecahydro-2H-oxacyclotetradecino[4,3-d][1,3]oxazol-10-yl 3,4,6-trideoxy-3-(dimethylamino)-D-xylo-hexopyranoside] | 0.2 µg/mL (≈ 0.234 µM) | 0.2 µg/mL (≈ 0.234 µM) | 0.4 µg/mL (≈ 0.468 µM) | 0.4 µg/mL (≈ 0.468 µM) | ≦0.05 | ≦0.05 | ≦0.05 | ≦0.05 | 0.4 µg/mL (≈ 0.468 µM) | 0.2 µg/mL (≈ 0.234 µM) | 0.78 µg/mL (≈ 0.913 µM) | 0.2 µg/mL (≈ 0.234 µM) | 6.25 µg/mL (≈ 7.32 µM) | – | – | – | – | – | –
CC[C@H]1OC(=O)[C@@](C)(F)C(=O)[C@H](C)[C@@H](OC2O[C@H](C)C[C@H](N(C)C)[C@H]2O)[C@@](C)(OC)C[C@@H](C)C(=O)[C@H](C)[C@H]2N(CCCCn3cnc4ncccc43)C(=O)O[C@]12CC (stereo partly drawn) [Example 27, (3aS,4R,7S,9R,10R,11S,13R,15R,15aR)-3a,4-diethyl-7-fluoro-1-[4-(1H-imidazo[4,5-b]pyridin-1-yl)butyl]-11-methoxy-7,9,11,13,15-pentamethyl-2,6,8,14-tetra-oxotetradecahydro-2H-oxacyclotetradecino[4,3-d][1,3]oxazol-10-yl 3,4,6-trideoxy-3-(dimethylamino)-D-xylo-hexopyranoside] | 0.05 µg/mL (≈ 0.0611 µM) | 0.1 µg/mL (≈ 0.122 µM) | 0.1 µg/mL (≈ 0.122 µM) | 0.1 µg/mL (≈ 0.122 µM) | ≦0.025 | ≦0.025 | – | ≦0.025 | 3.13 µg/mL (≈ 3.83 µM) | 0.1 µg/mL (≈ 0.122 µM) | 0.4 µg/mL (≈ 0.489 µM) | 0.1 µg/mL (≈ 0.122 µM) | 1.56 µg/mL (≈ 1.91 µM) | 0.025 µg/mL (≈ 0.0306 µM) | – | – | – | – | –
C=C[C@]12OC(=O)N(CCCCn3cnc(-c4cccnc4)c3)[C@@H]1[C@@H](C)C(=O)[C@H](C)C[C@](C)(OC)[C@H](OC1O[C@H](C)C[C@H](N(C)C)[C@H]1O)[C@@H](C)C(=O)[C@](C)(F)C(=O)O[C@@H]2CC (stereo partly drawn) [Example 49, (3aS,4R,7S,9R,10R,11S,13R,15R,15aR)-4-ethyl-7-fluoro-11-methoxy-7,9,11,13,15-pentamethyl-2,6,8,14-tetraoxo-1-[4-(4-pyridin-3-yl-1H-imidazol-1-yl)butyl]-3a-vinyltetradecahydro-2H-oxacyclotetradecino[4,3-d][1,3]oxazol-10-yl 3,4,6-trideoxy-3-(dimethylamino)-D-xylo-hexopyranoside] | 0.1 µg/mL (≈ 0.119 µM) | 0.2 µg/mL (≈ 0.238 µM) | 0.2 µg/mL (≈ 0.238 µM) | 0.2 µg/mL (≈ 0.238 µM) | ≦0.05 | ≦0.05 | ≦0.05 | ≦0.05 | 0.1 µg/mL (≈ 0.119 µM) | – | 0.78 µg/mL (≈ 0.926 µM) | – | 6.25 µg/mL (≈ 7.42 µM) | – | ≦0.05 | ≦0.05 | – | – | –
CC[C@H]1OC(=O)[C@@](C)(F)C(=O)[C@H](C)[C@@H](OC2O[C@H](C)C[C@H](N(C)C)[C@H]2O)[C@@](C)(OC)C[C@@H](C)C(=O)[C@H](C)[C@H]2N(CCCCc3ccc4ccccc4n3)C(=O)O[C@]12CC (stereo partly drawn) [Example 19, (3aS,4R,7S,9R,10R,11S,13R,15R,15aR)-3a,4-diethyl-7-fluoro-11-methoxy-7,9,11,13,15-pentamethyl-2,6,8,14-tetraoxo-1-(4-quinolin-2-ylbutyl)tetradecahydro-2H-oxacyclotetradecino[4,3-d][1,3]oxazol-10-yl 3,4,6-trideoxy-3-(dimethylamino)-D-xylo-hexopyranoside] | 0.4 µg/mL (≈ 0.483 µM) | 0.4 µg/mL (≈ 0.483 µM) | 0.4 µg/mL (≈ 0.483 µM) | 0.4 µg/mL (≈ 0.483 µM) | – | ≦0.05 | ≦0.05 | ≦0.05 | 0.78 µg/mL (≈ 0.942 µM) | 0.2 µg/mL (≈ 0.242 µM) | 0.4 µg/mL (≈ 0.483 µM) | 0.1 µg/mL (≈ 0.121 µM) | 6.25 µg/mL (≈ 7.55 µM) | – | – | – | 0.1 µg/mL (≈ 0.121 µM) | – | –
CC[C@H]1OC(=O)[C@H](C)C(=O)[C@H](C)[C@@H](OC2O[C@H](C)C[C@H](N(C)C)[C@H]2O)[C@@](C)(OC)C[C@@H](C)C(=O)[C@H](C)[C@H]2N(CCCCc3ncc(-c4cccc(N)c4)s3)C(=O)O[C@]12CC (stereo partly drawn) [Example 34, (3aS,4R,7R,9R,10R,11S,13R,15R,15aR)-1-{4-[5-(3-aminophenyl)-1,3-thiazol-2-yl]butyl}-3a,4-diethyl-11-methoxy-7,9,11,13,15-pentamethyl-2,6,8,14-tetraoxotetradecahydro-2H-oxacyclotetradecino[4,3-d][1,3]oxazol-10-yl 3,4,6-trideoxy-3-(dimethylamino)-D-xylo-hexopyranoside] | 0.1 µg/mL (≈ 0.117 µM) | 0.4 µg/mL (≈ 0.467 µM) | 0.2 µg/mL (≈ 0.233 µM) | 0.2 µg/mL (≈ 0.233 µM) | ≦0.05 | ≦0.05 | ≦0.05 | – | – | 12.5 µg/mL (≈ 14.6 µM) | 0.2 µg/mL (≈ 0.233 µM) | 0.4 µg/mL (≈ 0.467 µM) | 0.1 µg/mL (≈ 0.117 µM) | – | – | – | – | 3.13 µg/mL (≈ 3.65 µM) | ≦0.05
CC[C@H]1OC(=O)[C@H](C)C(=O)[C@H](C)[C@@H](OC2O[C@H](C)C[C@H](N(C)C)[C@H]2O)[C@@](C)(OC)C[C@@H](C)C(=O)[C@H](C)[C@H]2N(CCCCn3cnc(-c4ccncc4)c3)C(=O)O[C@]12CC (stereo partly drawn) [Example 28, (3aS,4R,7R,9R,10R,11S,13R,15R,15aR)-3a,4-diethyl-11-methoxy-7,9,11,13,15-pentamethyl-2,6,8,14-tetraoxo-1-[4-(4-pyridin-4-yl-1H-imidazol-1-yl)butyl]tetradecahydro-2H-oxacyclotetradecino[4,3-d][1,3]oxazol-10-yl 3,4,6-trideoxy-3-(dimethylamino)-D-xylo-hexopyranoside] | 0.1 µg/mL (≈ 0.121 µM) | 0.4 µg/mL (≈ 0.484 µM) | 0.4 µg/mL (≈ 0.484 µM) | 0.4 µg/mL (≈ 0.484 µM) | ≦0.05 | ≦0.05 | ≦0.05 | ≦0.05 | > 50 µg/mL | 0.4 µg/mL (≈ 0.484 µM) | 0.78 µg/mL (≈ 0.944 µM) | 0.2 µg/mL (≈ 0.242 µM) | 3.13 µg/mL (≈ 3.79 µM) | – | – | – | – | – | –
CC[C@H]1OC(=O)[C@H](C)C(=O)[C@H](C)[C@@H](OC2O[C@H](C)C[C@H](N(C)C)[C@H]2O)[C@@](C)(OC)C[C@@H](C)C(=O)[C@H](C)[C@H]2N(CCCCc3ccnc4ccccc34)C(=O)O[C@]12CC (stereo partly drawn) [Example 15, (3aS,4R,7R,9R,10R,11S,13R,15R,15aR)-3a,4-diethyl-11-methoxy-7,9,11,13,15-pentamethyl-2,6,8,14-tetraoxo-1-(4-quinolin-4-ylbutyl)tetradecahydro-2H-oxacyclotetradecino[4,3-d][1,3]oxazol-10-yl 3,4,6-trideoxy-3-(dimethylamino)-D-xylo-hexopyranoside] | 0.1 µg/mL (≈ 0.123 µM) | 0.4 µg/mL (≈ 0.494 µM) | 0.2 µg/mL (≈ 0.247 µM) | 0.4 µg/mL (≈ 0.494 µM) | ≦0.05 | ≦0.05 | ≦0.05 | ≦0.05 | 1.56 µg/mL (≈ 1.93 µM) | 0.1 µg/mL (≈ 0.123 µM) | 0.2 µg/mL (≈ 0.247 µM) | – | 3.13 µg/mL (≈ 3.86 µM) | – | – | ≦0.05 | – | – | –

Reference: US6756359B2, “C12 modified erythromycin macrolides and ketolides having antibacterial activity” (Chiron Corporation, priority 2001, dated 2004)
